Measured values as given in ChEMBL document CHEMBL1201862, “PubChem BioAssay data set” (2004).
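Test compounds were applied to cells in 96-well plates for 48 hours at 5 doses. GI50 is the concentration that inhibits growth by half.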 Calls of active or inactive are those of the source. Cut-off read from the data, not from the text of the source: active = GI50 up to about 1.1 µM and inactive = higher.

Key:
Assay in all cases: inhibition of tumour cell growth, NCI panel, 48 h
ACHN = tested on: ACHN
CAKI-1 = tested on: CAKI-1
COLO 205 = tested on: COLO 205
EKVX = tested on: EKVX
HOP-62 = tested on: HOP-62
KM12 = tested on: KM12
LOX IMVI = tested on: LOX IMVI
OVCAR-3 = tested on: OVCAR-3
OVCAR-4 = tested on: OVCAR-4
SF-268 = tested on: SF-268
SF-539 = tested on: SF-539
SK-MEL-2 = tested on: SK-MEL-2
SN12C = tested on: SN12C
SNB-75 = tested on: SNB-75
SR = tested on: SR
UACC-62 = tested on: UACC-62
UO-31 = tested on: UO-31

In the case of `Cc1ccc(Nc2nc(C)c(C(/C=C/c3ccc(/C=C/C(=N/NC(=O)C[n+]4ccccc4)c4sc(Nc5ccc(C)cc5[N+](=O)[O-])nc4C)cc3)=N\NC(=O)C[n+]3ccccc3)s2)c([N+](=O)[O-])c1`, the GI50 (ACHN) is reported as 82.8 µM (inactive), the GI50 (CAKI-1) is reported as 48.6 µM (inactive) and the GI50 (COLO 205) is reported as > 100 µM (inactive). The GI50 (EKVX) was 78.3 µM (inactive), the GI50 (HOP-62) was > 100 µM (inactive) and the GI50 (KM12) was > 100 µM (inactive). The GI50 (LOX IMVI) was 73.3 µM (inactive), the GI50 (OVCAR-3) was > 100 µM (inactive) and the GI50 (OVCAR-4) was > 100 µM (inactive). For the same compound, the GI50 (SF-268) was > 100 µM (inactive), the GI50 (SF-539) was 89.1 µM (inactive) and the GI50 (SK-MEL-2) was > 100 µM (inactive). For the same compound, the GI50 (SN12C) was 55.8 µM (inactive), the GI50 (SNB-75) was 33.5 µM (inactive) and the GI50 (SR) was 67.3 µM (inactive). The GI50 (UACC-62) was 20.6 µM (inactive) and the GI50 (UO-31) was 46.5 µM (inactive).

In the case of `O=S(=O)(C1=CC(S(=O)(=O)c2ccccc2)COC1)c1ccccc1` (centres undefined), the GI50 (ACHN) is reported as > 100 µM (inactive), the GI50 (CAKI-1) is reported as > 100 µM (inactive) and the GI50 (COLO 205) is reported as > 100 µM (inactive). The GI50 (EKVX) was > 100 µM (inactive), the GI50 (HOP-62) was > 100 µM (inactive) and the GI50 (KM12) was > 100 µM (inactive). For the same compound, the GI50 (LOX IMVI) was > 100 µM (inactive), the GI50 (OVCAR-3) was > 100 µM (inactive) and the GI50 (OVCAR-4) was > 100 µM (inactive). The GI50 (SF-268) was > 100 µM (inactive), the GI50 (SF-539) was > 100 µM (inactive) and the GI50 (SK-MEL-2) was > 100 µM (inactive). For the same compound, the GI50 (SN12C) was > 100 µM (inactive), the GI50 (SNB-75) was > 100 µM (inactive) and the GI50 (SR) was > 100 µM (inactive). For the same compound, the GI50 (UACC-62) was > 100 µM (inactive) and the GI50 (UO-31) was > 100 µM (inactive).

`O=[N+]([O-])c1ccc(Cl)c(C2CC(c3cccc4ccccc34)=Nc3ccccc3[S+]2[O-])c1` (centres undefined) was tested, and the GI50 (ACHN) was 18.5 µM (inactive), the GI50 (CAKI-1) was 13.2 µM (inactive) and the GI50 (COLO 205) was > 56.6 µM (inactive). For the same compound, the GI50 (EKVX) was > 57.5 µM (inactive), the GI50 (HOP-62) was 21.8 µM (inactive) and the GI50 (KM12) was 18.9 µM (inactive). For the same compound, the GI50 (LOX IMVI) was 15.4 µM (inactive), the GI50 (OVCAR-3) was 22.6 µM (inactive) and the GI50 (OVCAR-4) was 22 µM (inactive). For the same compound, the GI50 (SF-268) was 18.4 µM (inactive), the GI50 (SF-539) was 13.7 µM (inactive) and the GI50 (SK-MEL-2) was 15.1 µM (inactive). The GI50 (SN12C) was 21 µM (inactive), the GI50 (SNB-75) was 5.86 µM (inactive) and the GI50 (SR) was 10.5 µM (inactive). The GI50 (UACC-62) was 10.6 µM (inactive) and the GI50 (UO-31) was 17.7 µM (inactive).

`CCOC(=O)C1C(=O)c2ccccc2CN1Cc1ccccc1` (centres undefined) was tested, and the GI50 (ACHN) was > 100 µM (inactive), the GI50 (CAKI-1) was > 100 µM (inactive) and the GI50 (COLO 205) was > 100 µM (inactive). The GI50 (EKVX) was > 100 µM (inactive), the GI50 (HOP-62) was > 100 µM (inactive) and the GI50 (KM12) was > 100 µM (inactive). For the same compound, the GI50 (LOX IMVI) was > 100 µM (inactive), the GI50 (OVCAR-3) was > 100 µM (inactive) and the GI50 (OVCAR-4) was > 100 µM (inactive). The GI50 (SF-268) was > 100 µM (inactive), the GI50 (SF-539) was > 100 µM (inactive) and the GI50 (SK-MEL-2) was > 100 µM (inactive). The GI50 (SN12C) was > 100 µM (inactive), the GI50 (SNB-75) was > 100 µM (inactive) and the GI50 (SR) was > 100 µM (inactive). The GI50 (UACC-62) was > 100 µM (inactive) and the GI50 (UO-31) was > 100 µM (inactive).

`COc1ccc(NC(=O)CC(=O)NN2C(=O)/C(=C/c3ccc(N(CCC#N)CCC#N)cc3C)N=C2/C=C\c2ccccc2)cc1` was tested, and the GI50 (ACHN) was > 100 µM (inactive), the GI50 (CAKI-1) was > 100 µM (inactive) and the GI50 (COLO 205) was > 100 µM (inactive). For the same compound, the GI50 (HOP-62) was > 100 µM (inactive), the GI50 (KM12) was > 100 µM (inactive) and the GI50 (LOX IMVI) was > 100 µM (inactive). The GI50 (OVCAR-3) was > 100 µM (inactive), the GI50 (OVCAR-4) was > 100 µM (inactive) and the GI50 (SF-268) was > 100 µM (inactive). The GI50 (SF-539) was > 100 µM (inactive), the GI50 (SK-MEL-2) was > 100 µM (inactive) and the GI50 (SN12C) was > 100 µM (inactive). For the same compound, the GI50 (SNB-75) was 59.3 µM (inactive), the GI50 (SR) was > 100 µM (inactive) and the GI50 (UACC-62) was > 100 µM (inactive). For the same compound, the GI50 (UO-31) was > 100 µM (inactive).

`CCSc1nc2sc(C)c(C)c2c(=O)n1-c1ccc(C(=O)O)cc1` was tested, and the GI50 (ACHN) was 79.6 µM (inactive), the GI50 (CAKI-1) was > 100 µM (inactive) and the GI50 (COLO 205) was > 100 µM (inactive). For the same compound, the GI50 (EKVX) was 54 µM (inactive), the GI50 (HOP-62) was 88.5 µM (inactive) and the GI50 (KM12) was 54.8 µM (inactive). The GI50 (LOX IMVI) was 56.2 µM (inactive), the GI50 (OVCAR-3) was 24.8 µM (inactive) and the GI50 (OVCAR-4) was 71.8 µM (inactive). For the same compound, the GI50 (SF-268) was 27.2 µM (inactive), the GI50 (SF-539) was 18.8 µM (inactive) and the GI50 (SK-MEL-2) was > 100 µM (inactive). The GI50 (SN12C) was 55.1 µM (inactive), the GI50 (SNB-75) was 13.6 µM (inactive) and the GI50 (SR) was 41.4 µM (inactive). The GI50 (UACC-62) was > 100 µM (inactive) and the GI50 (UO-31) was 25.1 µM (inactive).

In the case of `COc1cc(C2=NN(C)C(c3ccc([N+](=O)[O-])o3)C2)cc(OC)c1OC` (centres undefined), the GI50 (ACHN) is reported as > 100 µM (inactive), the GI50 (CAKI-1) is reported as > 100 µM (inactive) and the GI50 (COLO 205) is reported as 36.9 µM (inactive). For the same compound, the GI50 (EKVX) was > 100 µM (inactive), the GI50 (HOP-62) was > 100 µM (inactive) and the GI50 (KM12) was > 100 µM (inactive). For the same compound, the GI50 (LOX IMVI) was 69 µM (inactive), the GI50 (OVCAR-4) was 91.4 µM (inactive) and the GI50 (SF-268) was > 100 µM (inactive). The GI50 (SF-539) was 49.7 µM (inactive), the GI50 (SK-MEL-2) was > 100 µM (inactive) and the GI50 (SN12C) was 83.8 µM (inactive). The GI50 (SNB-75) was 83.2 µM (inactive), the GI50 (SR) was 0.0736 µM (active) and the GI50 (UACC-62) was 83.2 µM (inactive). The GI50 (UO-31) was 72.1 µM (inactive).

In the case of `CC1=C(C(=O)Nc2ccc(C)cc2)C(c2cccc([N+](=O)[O-])c2)C(C(=O)Nc2ccc(C)cc2)=C(C)N1`, the GI50 (ACHN) is reported as 18.8 µM (inactive), the GI50 (CAKI-1) is reported as 27.9 µM (inactive) and the GI50 (COLO 205) is reported as 14.1 µM (inactive). For the same compound, the GI50 (EKVX) was 17.1 µM (inactive), the GI50 (HOP-62) was 29.5 µM (inactive) and the GI50 (KM12) was 15.6 µM (inactive). For the same compound, the GI50 (LOX IMVI) was 16.2 µM (inactive), the GI50 (OVCAR-3) was 20 µM (inactive) and the GI50 (OVCAR-4) was 12.2 µM (inactive). The GI50 (SF-268) was 16.1 µM (inactive), the GI50 (SF-539) was 19 µM (inactive) and the GI50 (SK-MEL-2) was 20.8 µM (inactive). For the same compound, the GI50 (SN12C) was 20.9 µM (inactive), the GI50 (SNB-75) was 16.7 µM (inactive) and the GI50 (SR) was 21.2 µM (inactive). For the same compound, the GI50 (UACC-62) was 13.3 µM (inactive) and the GI50 (UO-31) was 22 µM (inactive).
